Experiments:
Assay in all cases: competitive isoTOP-ABPP
Assay type in all cases: binding
[1] = molecular target: T1, POLR2L DNA-directed RNA polymerases I, II, and III subunit (Homo sapiens, UniProt P62875); conditions: 50 uM, 231 sol, in vitro; for R value (DMSO/fragment) for probe 1 labeling: P62875_K67
T1 construct: isoTOP-ABPP experiments performed in cell lysates (in vitro); endogenous in cells; host or cells: soluble proteome of human cancer cell lines (MDA-MB-231, Ramos, Jurkat)
Procedure, shortened: (§1)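 Readout: isotopic light/heavy MS1 peak-area ratio (R, DMSO heavy over compound light), median across peptides sharing a modified lysine. Lysate received fragment (activated esters 50 μM, guanidinylating agents 100 μM final) or DMSO, then 0.1 mM STP-alkyne probe for 1 h at ambient temperature.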

[2] = molecular target: T2, DYNC1H1 Cytoplasmic dynein 1 heavy chain 1 (Homo sapiens, UniProt Q14204); conditions: 50 uM, in vitro; for R value (DMSO/fragment) for probe 1 labeling: Q14204_K1649; for R value (DMSO/fragment) for probe 1 labeling / isoTOP-ABPP reactivity ratio at lysine Q14204_K1649: 231 sol
T2 construct: isoTOP-ABPP experiments performed in cell lysates (in vitro); endogenous in cells; host or cells: soluble proteome of human cancer cell lines (MDA-MB-231, Ramos, Jurkat)
T2 sequence (Q14204 whole entry, the tested form may be a part): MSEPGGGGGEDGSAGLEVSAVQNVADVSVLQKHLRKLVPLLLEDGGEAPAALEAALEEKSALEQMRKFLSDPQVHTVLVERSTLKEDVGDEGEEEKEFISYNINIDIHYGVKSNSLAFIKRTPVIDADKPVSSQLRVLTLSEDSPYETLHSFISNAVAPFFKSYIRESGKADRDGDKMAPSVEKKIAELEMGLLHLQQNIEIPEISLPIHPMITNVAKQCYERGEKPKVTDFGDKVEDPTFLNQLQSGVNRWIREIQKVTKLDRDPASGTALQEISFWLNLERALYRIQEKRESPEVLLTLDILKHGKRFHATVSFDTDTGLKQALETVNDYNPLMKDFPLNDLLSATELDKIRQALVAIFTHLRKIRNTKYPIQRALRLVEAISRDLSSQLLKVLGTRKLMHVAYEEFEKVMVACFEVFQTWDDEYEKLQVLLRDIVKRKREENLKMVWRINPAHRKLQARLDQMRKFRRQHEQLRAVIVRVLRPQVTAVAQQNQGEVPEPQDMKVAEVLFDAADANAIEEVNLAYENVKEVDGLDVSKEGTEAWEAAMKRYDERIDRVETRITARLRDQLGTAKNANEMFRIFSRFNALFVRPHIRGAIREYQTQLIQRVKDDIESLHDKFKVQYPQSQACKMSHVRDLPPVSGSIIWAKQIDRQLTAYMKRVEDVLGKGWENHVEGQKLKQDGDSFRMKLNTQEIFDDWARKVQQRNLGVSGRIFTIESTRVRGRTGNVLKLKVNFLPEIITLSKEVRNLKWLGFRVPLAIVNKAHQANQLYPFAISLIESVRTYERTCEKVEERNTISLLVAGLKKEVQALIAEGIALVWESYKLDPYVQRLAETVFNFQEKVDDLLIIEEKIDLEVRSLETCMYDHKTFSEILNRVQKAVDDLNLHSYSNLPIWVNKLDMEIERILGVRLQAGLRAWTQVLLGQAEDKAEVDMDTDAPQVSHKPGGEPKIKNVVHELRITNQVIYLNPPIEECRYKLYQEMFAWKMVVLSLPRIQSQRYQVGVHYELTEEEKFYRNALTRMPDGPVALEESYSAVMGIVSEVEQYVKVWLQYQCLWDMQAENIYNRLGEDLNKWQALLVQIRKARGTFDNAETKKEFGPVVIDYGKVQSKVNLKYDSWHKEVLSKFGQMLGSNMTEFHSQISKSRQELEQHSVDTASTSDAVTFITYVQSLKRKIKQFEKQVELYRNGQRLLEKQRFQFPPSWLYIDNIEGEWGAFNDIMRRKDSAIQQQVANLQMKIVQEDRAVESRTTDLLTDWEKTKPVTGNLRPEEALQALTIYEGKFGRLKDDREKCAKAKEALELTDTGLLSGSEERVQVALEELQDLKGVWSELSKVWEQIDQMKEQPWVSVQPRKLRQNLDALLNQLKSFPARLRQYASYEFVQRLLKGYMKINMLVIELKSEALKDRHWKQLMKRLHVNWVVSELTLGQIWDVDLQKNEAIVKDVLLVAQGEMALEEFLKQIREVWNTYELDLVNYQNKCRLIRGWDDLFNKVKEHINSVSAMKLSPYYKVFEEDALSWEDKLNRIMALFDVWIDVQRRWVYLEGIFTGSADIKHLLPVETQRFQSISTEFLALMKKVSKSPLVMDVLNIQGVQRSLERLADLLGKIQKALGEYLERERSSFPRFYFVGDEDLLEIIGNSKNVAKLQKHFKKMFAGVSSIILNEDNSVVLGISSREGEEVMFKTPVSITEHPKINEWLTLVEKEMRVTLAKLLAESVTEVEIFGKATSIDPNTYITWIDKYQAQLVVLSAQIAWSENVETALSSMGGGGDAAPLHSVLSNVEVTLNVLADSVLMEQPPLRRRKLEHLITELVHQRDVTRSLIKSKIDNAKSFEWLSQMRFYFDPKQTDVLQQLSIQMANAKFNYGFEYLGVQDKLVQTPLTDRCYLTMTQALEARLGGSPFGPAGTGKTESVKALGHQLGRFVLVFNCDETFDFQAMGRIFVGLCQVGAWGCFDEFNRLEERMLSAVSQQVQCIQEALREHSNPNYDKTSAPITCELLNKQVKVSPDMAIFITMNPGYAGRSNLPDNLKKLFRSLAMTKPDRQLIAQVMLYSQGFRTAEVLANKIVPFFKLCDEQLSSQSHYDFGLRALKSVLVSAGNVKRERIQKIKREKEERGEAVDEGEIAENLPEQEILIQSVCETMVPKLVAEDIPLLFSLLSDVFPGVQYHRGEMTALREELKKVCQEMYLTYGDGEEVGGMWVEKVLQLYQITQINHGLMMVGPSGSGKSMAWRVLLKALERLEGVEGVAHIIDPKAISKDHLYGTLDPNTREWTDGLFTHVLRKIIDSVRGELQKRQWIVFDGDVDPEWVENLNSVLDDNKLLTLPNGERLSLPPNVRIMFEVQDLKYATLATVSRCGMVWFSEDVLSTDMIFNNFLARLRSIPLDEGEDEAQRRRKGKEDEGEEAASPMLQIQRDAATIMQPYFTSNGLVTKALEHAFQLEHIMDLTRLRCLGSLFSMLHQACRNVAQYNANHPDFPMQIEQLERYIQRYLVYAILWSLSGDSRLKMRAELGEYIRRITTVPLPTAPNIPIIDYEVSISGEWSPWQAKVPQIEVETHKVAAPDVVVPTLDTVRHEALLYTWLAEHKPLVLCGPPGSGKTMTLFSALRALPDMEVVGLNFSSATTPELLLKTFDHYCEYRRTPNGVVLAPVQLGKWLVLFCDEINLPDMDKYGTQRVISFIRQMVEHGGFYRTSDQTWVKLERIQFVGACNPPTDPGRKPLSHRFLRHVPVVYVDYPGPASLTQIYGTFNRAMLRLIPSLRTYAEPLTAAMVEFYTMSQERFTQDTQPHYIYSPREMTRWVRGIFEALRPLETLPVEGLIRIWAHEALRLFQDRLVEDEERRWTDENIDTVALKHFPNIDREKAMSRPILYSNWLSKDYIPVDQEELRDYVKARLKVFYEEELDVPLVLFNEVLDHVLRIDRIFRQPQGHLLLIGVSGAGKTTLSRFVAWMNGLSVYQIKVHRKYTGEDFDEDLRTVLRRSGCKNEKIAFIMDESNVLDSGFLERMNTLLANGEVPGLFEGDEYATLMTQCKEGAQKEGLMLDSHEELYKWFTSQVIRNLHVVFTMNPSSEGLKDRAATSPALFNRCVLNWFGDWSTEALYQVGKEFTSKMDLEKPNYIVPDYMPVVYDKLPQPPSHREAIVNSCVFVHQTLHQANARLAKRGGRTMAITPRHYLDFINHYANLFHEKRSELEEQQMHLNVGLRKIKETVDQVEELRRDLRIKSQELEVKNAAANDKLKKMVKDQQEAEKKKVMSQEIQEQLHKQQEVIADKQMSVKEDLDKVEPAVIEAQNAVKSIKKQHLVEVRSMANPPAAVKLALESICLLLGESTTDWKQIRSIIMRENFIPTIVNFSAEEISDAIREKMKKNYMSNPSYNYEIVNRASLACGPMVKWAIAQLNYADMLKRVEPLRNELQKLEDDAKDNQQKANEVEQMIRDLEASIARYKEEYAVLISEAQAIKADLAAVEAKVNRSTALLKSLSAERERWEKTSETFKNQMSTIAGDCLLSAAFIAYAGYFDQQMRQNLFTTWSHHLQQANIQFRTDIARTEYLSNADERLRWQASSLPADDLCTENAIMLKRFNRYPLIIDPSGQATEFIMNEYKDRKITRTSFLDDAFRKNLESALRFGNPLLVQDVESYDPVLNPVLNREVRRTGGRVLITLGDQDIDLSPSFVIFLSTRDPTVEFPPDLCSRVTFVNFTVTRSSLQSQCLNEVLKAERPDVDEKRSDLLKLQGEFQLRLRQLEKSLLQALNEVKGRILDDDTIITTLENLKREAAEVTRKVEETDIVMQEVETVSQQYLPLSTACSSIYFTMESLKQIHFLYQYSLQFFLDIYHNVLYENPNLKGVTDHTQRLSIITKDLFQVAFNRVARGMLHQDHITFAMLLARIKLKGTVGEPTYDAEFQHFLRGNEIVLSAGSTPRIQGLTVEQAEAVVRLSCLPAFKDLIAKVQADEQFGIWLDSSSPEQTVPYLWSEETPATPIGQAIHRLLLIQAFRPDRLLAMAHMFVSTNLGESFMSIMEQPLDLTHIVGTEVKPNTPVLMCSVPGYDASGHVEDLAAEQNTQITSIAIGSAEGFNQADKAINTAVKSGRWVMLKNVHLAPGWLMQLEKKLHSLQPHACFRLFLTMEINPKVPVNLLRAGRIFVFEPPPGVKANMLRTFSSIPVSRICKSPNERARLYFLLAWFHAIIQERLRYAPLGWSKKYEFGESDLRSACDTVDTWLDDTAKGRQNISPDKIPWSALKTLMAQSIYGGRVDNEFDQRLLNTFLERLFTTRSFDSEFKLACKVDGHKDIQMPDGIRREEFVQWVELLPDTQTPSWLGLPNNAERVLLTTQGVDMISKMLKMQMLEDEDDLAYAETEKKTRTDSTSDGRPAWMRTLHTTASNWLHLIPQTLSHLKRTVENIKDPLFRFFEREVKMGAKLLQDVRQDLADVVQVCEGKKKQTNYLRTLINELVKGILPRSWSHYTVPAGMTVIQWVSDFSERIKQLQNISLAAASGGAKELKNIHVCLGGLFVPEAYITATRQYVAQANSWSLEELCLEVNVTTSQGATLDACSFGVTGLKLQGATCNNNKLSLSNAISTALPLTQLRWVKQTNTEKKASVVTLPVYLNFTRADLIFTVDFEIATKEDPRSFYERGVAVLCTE
Procedure, shortened: as §1

STRN3 Striatin-3 = molecular target: T3, STRN3 Striatin-3 (Homo sapiens, UniProt Q13033); conditions: 50 uM, in vitro; for R value (DMSO/fragment) for probe 1 labeling: Q13033_K755; for R value (DMSO/fragment) for probe 1 labeling / isoTOP-ABPP reactivity ratio at lysine Q13033_K755: 231 sol
T3 construct: isoTOP-ABPP experiments performed in cell lysates (in vitro); endogenous in cells; host or cells: soluble proteome of human cancer cell lines (MDA-MB-231, Ramos, Jurkat)
T3 sequence (Q13033 1-797): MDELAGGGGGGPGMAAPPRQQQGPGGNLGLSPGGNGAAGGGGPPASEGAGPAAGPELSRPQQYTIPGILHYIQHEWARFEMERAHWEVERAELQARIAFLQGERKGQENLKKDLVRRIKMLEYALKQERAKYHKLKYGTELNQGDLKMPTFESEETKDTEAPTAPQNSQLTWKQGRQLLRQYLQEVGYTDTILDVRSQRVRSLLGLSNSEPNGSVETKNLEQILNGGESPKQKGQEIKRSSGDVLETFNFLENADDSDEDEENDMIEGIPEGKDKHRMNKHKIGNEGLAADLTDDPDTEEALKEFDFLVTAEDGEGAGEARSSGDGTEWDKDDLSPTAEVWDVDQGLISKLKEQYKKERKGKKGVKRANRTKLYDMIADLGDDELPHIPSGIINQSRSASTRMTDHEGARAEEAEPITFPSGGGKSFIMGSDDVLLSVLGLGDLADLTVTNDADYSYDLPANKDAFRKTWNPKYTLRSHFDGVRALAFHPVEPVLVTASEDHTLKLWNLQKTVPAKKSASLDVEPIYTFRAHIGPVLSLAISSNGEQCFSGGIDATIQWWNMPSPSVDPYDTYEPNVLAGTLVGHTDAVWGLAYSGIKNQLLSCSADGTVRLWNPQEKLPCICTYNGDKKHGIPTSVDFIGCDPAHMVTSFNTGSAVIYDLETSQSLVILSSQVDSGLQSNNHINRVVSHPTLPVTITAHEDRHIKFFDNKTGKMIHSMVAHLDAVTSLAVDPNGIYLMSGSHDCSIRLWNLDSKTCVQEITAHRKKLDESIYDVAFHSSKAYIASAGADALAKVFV
Procedure, shortened: as §1

[3] = molecular target: T4, GLUD1 Glutamate dehydrogenase 1, mitochondrial (Homo sapiens, UniProt P00367); conditions: 50 uM, in vitro; for R value (DMSO/fragment) for probe 1 labeling: P00367_K480; for R value (DMSO/fragment) for probe 1 labeling / isoTOP-ABPP reactivity ratio at lysine P00367_K480: 231 sol
T4 construct: isoTOP-ABPP experiments performed in cell lysates (in vitro); endogenous in cells; host or cells: MDA-MB-231 soluble lysate
T4 sequence (P00367 54-558): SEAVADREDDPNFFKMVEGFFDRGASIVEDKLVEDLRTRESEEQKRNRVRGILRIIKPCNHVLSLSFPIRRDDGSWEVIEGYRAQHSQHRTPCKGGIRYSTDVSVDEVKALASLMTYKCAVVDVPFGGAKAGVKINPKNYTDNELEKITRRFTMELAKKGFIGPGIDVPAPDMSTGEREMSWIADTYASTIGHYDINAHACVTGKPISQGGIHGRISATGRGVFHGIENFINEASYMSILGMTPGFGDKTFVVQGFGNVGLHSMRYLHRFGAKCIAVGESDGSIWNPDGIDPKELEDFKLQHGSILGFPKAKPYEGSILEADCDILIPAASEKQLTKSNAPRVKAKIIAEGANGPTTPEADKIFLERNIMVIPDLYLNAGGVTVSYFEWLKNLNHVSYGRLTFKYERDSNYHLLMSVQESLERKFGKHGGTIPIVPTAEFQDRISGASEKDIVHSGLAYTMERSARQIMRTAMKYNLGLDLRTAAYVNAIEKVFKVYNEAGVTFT
Procedure, shortened: as §1

[4] = molecular target: T5, PNPO Pyridoxine-5-phosphate oxidase (Homo sapiens, UniProt Q9NVS9); conditions: for blockade of probe 1 labeling of K100: PNPO K100; for R value (DMSO/fragment) for probe 1 labeling: Q9NVS9_K100; for R value (DMSO/fragment) for probe 1 labeling / isoTOP-ABPP reactivity ratio at lysine Q9NVS9_K100: 231 sol
T5 construct: endogenous in cells; host or cells: MDA-MB-231 (soluble fraction of lysate)
T5 sequence (Q9NVS9 1-261): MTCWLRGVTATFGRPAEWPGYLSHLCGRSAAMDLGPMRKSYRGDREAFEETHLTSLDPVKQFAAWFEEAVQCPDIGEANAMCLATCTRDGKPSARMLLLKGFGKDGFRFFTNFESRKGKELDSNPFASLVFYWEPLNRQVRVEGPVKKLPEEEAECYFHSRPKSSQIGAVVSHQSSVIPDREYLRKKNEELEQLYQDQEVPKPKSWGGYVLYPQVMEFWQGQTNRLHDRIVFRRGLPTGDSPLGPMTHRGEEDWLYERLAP
Procedure, shortened: as §1

SMILES: O=C(CCc1cn(-c2ccccc2)nc1-c1ccccc1)Oc1c(F)c(F)c(F)c(F)c1F [fragment 19, Pentafluorophenyl 3-(1,3-diphenyl-1H-pyrazol-4-yl)propanoate]
- R value (DMSO/fragment) for probe 1 labeling [1]: 1.0
- R value (DMSO/fragment) for probe 1 labeling [2]: 1.0
- R value (DMSO/fragment) for probe 1 labeling (STRN3 Striatin-3): 0.9
- R value (DMSO/fragment) for probe 1 labeling [3]: 1.0
- blockade of probe 1 labeling of K100 [4]: fully blocking probe 1 labeling
- R value (DMSO/fragment) for probe 1 labeling ([4]; 50 uM, in vitro): 20.0

SMILES: O=C(Oc1c(F)c(F)c(F)c(F)c1F)C(c1ccccc1)c1ccccc1 [fragment 20, Pentafluorophenyl 2,2-diphenylacetate]
- R value (DMSO/fragment) for probe 1 labeling [1]: 0.9
- R value (DMSO/fragment) for probe 1 labeling [2]: 1.0
- R value (DMSO/fragment) for probe 1 labeling (STRN3 Striatin-3): 0.9
- R value (DMSO/fragment) for probe 1 labeling [3]: 1.4
- R value (DMSO/fragment) for probe 1 labeling ([4]; 50 uM, in vitro): 0.9

SMILES: O=C(Oc1c(F)c(F)c(F)c(F)c1F)c1cc(C(F)(F)F)cc(C(F)(F)F)c1 [fragment 21, Pentafluorophenyl 3,5-bis(trifluoromethyl)benzoate]
- R value (DMSO/fragment) for probe 1 labeling [1]: 0.8
- R value (DMSO/fragment) for probe 1 labeling [2]: 1.4
- R value (DMSO/fragment) for probe 1 labeling (STRN3 Striatin-3): 0.9
- R value (DMSO/fragment) for probe 1 labeling [3]: 1.2
- R value (DMSO/fragment) for probe 1 labeling ([4]; 50 uM, in vitro): 0.9

SMILES: Cn1cc(CC(=O)Oc2c(F)c(F)c(F)c(F)c2F)c2ccccc21 [fragment 22, Pentafluorophenyl 2-(1-methyl-1H-indol-3-yl)acetate]
- R value (DMSO/fragment) for probe 1 labeling [1]: 0.9
- R value (DMSO/fragment) for probe 1 labeling [2]: 1.1
- R value (DMSO/fragment) for probe 1 labeling (STRN3 Striatin-3): 1.0
- R value (DMSO/fragment) for probe 1 labeling [3]: 2.5
- blockade of probe 1 labeling of K100 [4]: fully blocking probe 1 labeling
- R value (DMSO/fragment) for probe 1 labeling ([4]; 50 uM, in vitro): 20.0

SMILES: COc1cc(CCC(=O)Oc2c(F)c(F)c(F)c(F)c2F)cc(OC)c1OC [fragment 23, Pentafluorophenyl 3-(3,4,5-trimethoxyphenyl)propanoate]
- R value (DMSO/fragment) for probe 1 labeling [1]: 1.1
- R value (DMSO/fragment) for probe 1 labeling [2]: 1.7
- R value (DMSO/fragment) for probe 1 labeling (STRN3 Striatin-3): 1.2
- R value (DMSO/fragment) for probe 1 labeling [3]: 1.8
- R value (DMSO/fragment) for probe 1 labeling ([4]; 50 uM, in vitro): 1.8

SMILES: O=C(Oc1c(F)c(F)c(F)c(F)c1F)C1CCN(C(=O)OCc2ccccc2)CC1 [fragment 24, 1-Benzyl 4-(pentafluorophenyl) piperidine-1,4-dicarboxylate]
- isoTOP-ABPP reactivity ratio at lysine P62875_K67 [1]: 0.9
- isoTOP-ABPP reactivity ratio at lysine Q14204_K1649 [2]: 1.3
- isoTOP-ABPP reactivity ratio at lysine Q13033_K755 (STRN3 Striatin-3): 1.1
- isoTOP-ABPP reactivity ratio at lysine P00367_K480 [3]: 2.0
- isoTOP-ABPP reactivity ratio at lysine Q9NVS9_K100 ([4]; 50 uM, in vitro): 0.9

SMILES: O=C(Oc1c(F)c(F)c(F)c(F)c1F)c1ccc2ccccc2n1 [fragment 25, Pentafluorophenyl quinoline-2-carboxylate]
- isoTOP-ABPP reactivity ratio at lysine P62875_K67 [1]: 1.0
- isoTOP-ABPP reactivity ratio at lysine Q14204_K1649 [2]: 1.7
- isoTOP-ABPP reactivity ratio at lysine Q13033_K755 (STRN3 Striatin-3): 1.0
- isoTOP-ABPP reactivity ratio at lysine P00367_K480 [3]: 1.2
- isoTOP-ABPP reactivity ratio at lysine Q9NVS9_K100 ([4]; 50 uM, in vitro): 1.0

SMILES: O=C(CN1C(=O)c2ccccc2C1=O)Oc1c(F)c(F)c(F)c(F)c1F [fragment 27, Pentafluorophenyl 2-(1,3-dioxoisoindolin-2-yl)acetate]
- isoTOP-ABPP reactivity ratio at lysine P62875_K67 [1]: 1.0
- isoTOP-ABPP reactivity ratio at lysine Q14204_K1649 [2]: 4.2
- isoTOP-ABPP reactivity ratio at lysine Q13033_K755 (STRN3 Striatin-3): 1.0
- isoTOP-ABPP reactivity ratio at lysine P00367_K480 [3]: 2.0
- isoTOP-ABPP reactivity ratio at lysine Q9NVS9_K100 ([4]; 50 uM, in vitro): 1.0

SMILES: CCn1cc(C(=O)Oc2c(F)c(F)c(F)c(F)c2F)c(=O)c2ccc(C)nc21 [fragment 28, Pentafluorophenyl 1-ethyl-7-methyl-4-oxo-1,4-dihydro-1,8-naphthyridine-3-carboxylate]
- isoTOP-ABPP reactivity ratio at lysine P62875_K67 [1]: 1.0
- isoTOP-ABPP reactivity ratio at lysine Q14204_K1649 [2]: 1.0
- isoTOP-ABPP reactivity ratio at lysine Q13033_K755 (STRN3 Striatin-3): 0.9
- isoTOP-ABPP reactivity ratio at lysine P00367_K480 [3]: 1.0
- isoTOP-ABPP reactivity ratio at lysine Q9NVS9_K100 ([4]; 50 uM, in vitro): 0.9

SMILES: O=C(CC12CC3CC(CC(C3)C1)C2)Oc1ccc([N+](=O)[O-])cc1[N+](=O)[O-] [fragment 38, 2,4-Dinitrophenyl 2-(adamantan-1-yl)acetate]
- isoTOP-ABPP ratio (R) at liganded lysine Q14204_K1649 ([2]; sol, 231): 1.0
- isoTOP-ABPP ratio (R) at liganded lysine Q13033_K755 (STRN3 Striatin-3; sol, 231): 0.9
- isoTOP-ABPP ratio (R) at liganded lysine P00367_K480 ([3]; sol, 231): 1.3
- isoTOP-ABPP ratio (R) at liganded lysine Q9NVS9_K100 ([4]; 50 uM, in vitro, sol, 231): 0.9

— patent publication US20210255193A1, “LYSINE REACTIVE PROBES AND USES THEREOF” (The Scripps Research Institute, priority 2017, published 2021)
